Data on one sequence can be found in PMC7018657, “Molecular Determinants of Substrate Selectivity of a Pneumococcal Rgg-Regulated Peptidase-Containing ABC Transporter” (mBio, 2020).

What all share (assay type): cell-based, Streptococcus pneumoniae R6
Settings in all cases: signal sequence (wild type or mutated) fused to BlpI-HiBiT cargo peptide; R6; CDM+; CSP, BlpC and RtgSA-C10 treatment; 3 independent experiments

One assay relates to ComAB. As to the kind of experiment: HiBiT peptide secretion assay, ComAB+ strain. The protocol:
(§1) FIG 5 RtgAB secretes different GG peptides from ComAB and BlpAB. R6 ComAB^−/BlpAB^−/RtgAB^− and single-transporter-positive ComAB^+, BlpAB^+, and RtgAB^+ strains expressing RtgC-HiBiT (A), RtgG-HiBiT (B), or BlpI-HiBiT (C) were grown in CDM+ to an OD620 of 0.05 and treated with 200 ng/ml CSP, 200 ng/ml BlpC, and 20 nM RtgSA-C10. Samples were taken every 30 min, and extracellular HiBiT signal was quantified. Data are presented as fold change values relative to the ComAB^−/BlpAB^−/RtgAB^− control. Red dashed lines represent fold change = 1 (no difference versus the control). Plots show means ± SEs from 3 independent experiments.
(§2) Cells were inoculated from starter cultures to an OD620 of 0.005 and grown in CDM+. […] Samples were taken for HiBiT quantification at appropriate time points. […] HiBiT signal was quantified by mixing samples with HiBiT extracellular detection reagent (N2421; Promega) at a 1:1 ratio and reading luminescence with a Synergy HTX plate reader. Samples were also taken for quantification of intracellular peptide; for endpoint assays, they were taken concurrently with the extracellular samples, and for time course assays, they were taken at the last time point. Extracellular peptide was removed from these samples by proteinase K digestion, and then the cells were lysed and HiBiT signal was quantified as described above. […]
(§3) and read 5 min following reagent addition. […]
In general terms: With HiBiT, luminescence reflects the tagged protein that the partner subunit can reach.

Another assay concerns RtgAB. As to the kind of experiment: HiBiT peptide secretion assay, RtgAB+ strain. The protocol:
FIG 3 RtgAB secretes RtgC and RtgG. R6 ComAB^−/BlpAB^−/RtgAB^− and ComAB^−/BlpAB^−/RtgAB^+ strains expressing RtgC-HiBiT (A) or RtgG-HiBiT (B) were grown in CDM+ to an OD620 of 0.05 and treated with 200 ng/ml CSP, 200 ng/ml BlpC, and 20 nM RtgSA-C10. CSP and BlpC were added to allow for comparison with ComAB^+ and BlpAB^+ strains in later experiments. Samples were taken every 30 min, and extracellular HiBiT signal was quantified. Data are presented as fold change values relative to the ComAB^−/BlpAB^−/RtgAB^− control. Red dashed lines represent fold change = 1 (no difference versus the control). […]
FIG 5 RtgAB secretes different GG peptides from ComAB and BlpAB. […] Samples were taken every 30 min, and extracellular HiBiT signal was quantified. […]
Cells were inoculated from starter cultures to an OD620 of 0.005 and grown in CDM+. […] Samples were taken for HiBiT quantification at appropriate time points. […] HiBiT signal was quantified by mixing samples with HiBiT extracellular detection reagent (N2421; Promega) at a 1:1 ratio and reading luminescence with a Synergy HTX plate reader. Samples were also taken for quantification of intracellular peptide; for endpoint assays, they were taken concurrently with the extracellular samples, and for time course assays, they were taken at the last time point. […]
as §3

The subject of another assay is BlpAB. As to the kind of experiment: HiBiT peptide secretion assay, BlpAB+ strain. The protocol: as §1, §2, §3

In the case of MELILPNNYVDLEQEEMMYLDGG [SSRtgG], in the assay on ComAB, the “secretion through ComAB, BlpI cargo peptide” value is “preventing its secretion through ComAB and BlpAB”. Further, the “secretion through RtgAB, BlpI cargo peptide” value in the assay on RtgAB is “promotes secretion of the BlpI cargo peptide through RtgAB”. For the same sequence, the “secretion through BlpAB, BlpI cargo peptide” value in the assay with BlpAB is “preventing its secretion through ComAB and BlpAB”.
